Earlier results on 3 compounds are cited in article PMC5729432, “A Phase 1 study of ARQ 087, an oral pan-FGFR inhibitor in patients with advanced solid tumours” (British Journal of Cancer, 2017).

The subject of data set [1] is patients. More on the design: method as in Nogova et al, 2017. The settings on record: at the RP2D; ref Nogova et al, 2017.
The subject of data set [2] is patients with advanced solid tumours. Also noted: method as in Andre et al, 2013b; Saka et al, 2017. The note with it: ref Andre et al, 2013b; Saka et al, 2017.
Data set [3] relates to patients with advanced solid tumors. More on the design: method as in Tabernero et al, 2015. The settings on record: ref Tabernero et al, 2015.

Take `CCN1CCN(c2ccc(Nc3cc(N(C)C(=O)Nc4c(Cl)c(OC)cc(OC)c4Cl)ncn3)cc2)CC1` [BGJ398]: the “patients requiring dose adjustments or interruptions for hyperphosphataemia” value in data set [1] is 50%.

Turning to `COc1cc(CCc2cc(NC(=O)c3ccc(N4CC(C)NC(C)C4)cc3)n[nH]2)cc(OC)c1` (stereo not shown) [AZD3547], in data set [2], the “common treatment-related AEs” value was “fatigue, mucositis, nausea, CSR, and hyperphosphataemia”.

In the case of `COc1cc(OC)cc(N(CCNC(C)C)c2ccc3ncc(-c4cnn(C)c4)nc3c2)c1` [JNJ-42756493], in data set [3], the AE asthenia is given as 55%, the AE constipation was 34%, the AE decreased appetite was 32% and the AE dry mouth was 45%. Moreover, in data set [3], the AE hyperphosphataemia is 65%, the AE nail toxicity is on record as 35%, the “dose interruptions for hyperphosphataemia” value is reported as 31% and the “dose modifications for hyperphosphataemia” value was 8%.
